Assay results as given in the supplement of paper PMC9663587.

Experiments:
LEE011/Ribociclib [1] = compound: T1, CN(C)C(=O)c1cc2cnc(Nc3ccc(N4CCNCC4)cn3)nc2n1C1CCCC1 [LEE011/Ribociclib]
Taselisib/GDC0032 = compound: Cc1nc(-c2cn3c(n2)-c2ccc(-c4cnn(C(C)(C)C(N)=O)c4)cc2OCC3)n(C(C)C)n1 [Taselisib/GDC0032]
Volasertib/BI6727 = compound: CC[C@@H]1C(=O)N(C)c2cnc(Nc3ccc(C(=O)N[C@H]4CC[C@H](N5CCN(CC6CC6)CC5)CC4)cc3OC)nc2N1C(C)C [Volasertib/BI6727]
[2] = compound: CCN1CCN(Cc2ccc(Nc3ncc(F)c(-c4cc(F)c5nc(C)n(C(C)C)c5c4)n3)nc2)CC1
Tivantinib/ARQ197 = compound: O=C1NC(=O)[C@@H](c2cn3c4c(cccc24)CCC3)[C@@H]1c1c[nH]c2ccccc12 [Tivantinib/ARQ197]
Pictilisib/GDC0941 = compound: CS(=O)(=O)N1CCN(Cc2cc3nc(-c4cccc5[nH]ncc45)nc(N4CCOCC4)c3s2)CC1 [Pictilisib/GDC0941]
ABT-737 = compound: CN(C)CC[C@H](CSc1ccccc1)Nc1ccc(S(=O)(=O)NC(=O)c2ccc(N3CCN(Cc4ccccc4-c4ccc(Cl)cc4)CC3)cc2)cc1[N+](=O)[O-] [ABT-737]
Neratinib/HKI272 [3] = compound: T2, CCOc1cc2ncc(C#N)c(Nc3ccc(OCc4ccccn4)c(Cl)c3)c2cc1NC(=O)/C=C/CN(C)C [Neratinib/HKI272]
Ceritinib/LDK378 = compound: Cc1cc(Nc2ncc(Cl)c(Nc3ccccc3S(=O)(=O)C(C)C)n2)c(OC(C)C)cc1C1CCNCC1 [Ceritinib/LDK378]
BSJ-03-123 [4] = compound: T3, CC(=O)c1c(C)c2cnc(Nc3ccc(N4CCN(CCOCCOCCOCCNC(=O)COc5cccc6c5C(=O)N(C5CCC(=O)NC5=O)C6=O)CC4)cn3)nc2n(C2CCCC2)c1=O [BSJ-03-123]
INK128/MLN0128 = compound: CC(C)n1nc(-c2ccc3oc(N)nc3c2)c2c(N)ncnc21 [INK128/MLN0128]
THZ531 = compound: CN(C)C/C=C/C(=O)Nc1ccc(C(=O)N2CCC[C@@H](Nc3ncc(Cl)c(-c4c[nH]c5ccccc45)n3)C2)cc1 [THZ531]
Paclitaxel = compound: CC(=O)O[C@H]1C(=O)[C@@]2(C)[C@H]([C@H](OC(=O)c3ccccc3)[C@]3(O)C[C@H](OC(=O)[C@H](O)[C@@H](NC(=O)c4ccccc4)c4ccccc4)C(C)=C1C3(C)C)[C@]1(OC(C)=O)CO[C@@H]1C[C@@H]2O [Paclitaxel]
[5] = compound: COc1ccc2c(c1)[C@]1(C[C@H]1c1ccc3c(/C=C/c4ccc(CN5C[C@@H](C)O[C@@H](C)C5)cc4)n[nH]c3c1)C(=O)N2
LEE011/Ribociclib [6] = compound: T1, LEE011/Ribociclib; assay: GR value, 72 h; higher = faster growth (1 = untreated, <0 = killing);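 note: breast cancer and non-malignant breast epithelial lines, nine half-log doses, viable cells counted by Hoechst and LIVE/DEAD dye imaging versus time-zero plates and DMSO controls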
[7] = compound: CCc1cnn2c(NCc3ccc[n+]([O-])c3)cc(N3CCCC[C@H]3CCO)nc12; assay: as above
[8] = compound: CCN1CCN(Cc2ccc(Nc3ncc(F)c(-c4cc(F)c5nc(C)n(C(C)C)c5c4)n3)nc2)CC1; assay: as above
YKL-5-124 = compound: C=CC(=O)Nc1ccc(C(=O)Nc2[nH]nc3c2CN(C(=O)N[C@H](CN(C)C)c2ccccc2)C3(C)C)cc1 [YKL-5-124]; assay: as above
Neratinib/HKI272 [9] = compound: T2, Neratinib/HKI272; assay: as above
BSJ-03-123 [10] = compound: T3, BSJ-03-123; assay: as above
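Throughout, for GR50, 72 h: breast cancer and non-malignant breast epithelial cell lines, Deep Dye Drop or Dye Drop imaging, nine half-log doses, GR normalized to time-zero plates and DMSO-only controls.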

HCC70
GR50, 72 h (LEE011/Ribociclib [1]): > 10 µM | GR50, 72 h (Taselisib/GDC0032): 0.161 µM | GR50, 72 h (Volasertib/BI6727): 0.0066 µM | GR50, 72 h [2]: 1.9 µM | GR50, 72 h (Tivantinib/ARQ197): 0.335 µM | GR50, 72 h (Pictilisib/GDC0941): 0.161 µM | GR50, 72 h (ABT-737): 2.78 µM | GR50, 72 h (Neratinib/HKI272 [3]): 0.16 µM | GR50, 72 h (Ceritinib/LDK378): 3.19 µM | GR50, 72 h (BSJ-03-123 [4]): 4.15 µM | GR50, 72 h (INK128/MLN0128): 0.0048 µM | GR50, 72 h (THZ531): 0.0623 µM | GR50, 72 h (Paclitaxel): 0.00134 µM | GR50, 72 h [5]: 0.00349 µM | GR value (LEE011/Ribociclib [6]; 0.001 µM): 1.03 GR | GR value (LEE011/Ribociclib [6]; 0.003162 µM): 1.17 GR | GR value (LEE011/Ribociclib [6]; 0.01 µM): 1.01 GR | GR value (LEE011/Ribociclib [6]; 0.03162 µM): 1.04 GR | GR value (LEE011/Ribociclib [6]; 0.1 µM): 1.09 GR | GR value (LEE011/Ribociclib [6]; 0.3162 µM): 1.03 GR | GR value (LEE011/Ribociclib [6]; 1 µM): 1.06 GR | GR value (LEE011/Ribociclib [6]; 3.162 µM): 1.03 GR | GR value (LEE011/Ribociclib [6]; 10 µM): 1.05 GR | GR value ([7]; 0.0001 µM): 1.05 GR | GR value ([7]; 0.0003162 µM): 0.913 GR | GR value ([7]; 0.001 µM): 1.13 GR | GR value ([7]; 0.003162 µM): 1.26 GR | GR value ([7]; 0.01 µM): 0.835 GR | GR value ([7]; 0.03162 µM): -0.865 GR | GR value ([7]; 0.1 µM): -0.892 GR | GR value ([7]; 0.3162 µM): -0.885 GR | GR value ([7]; 1 µM): -0.901 GR | GR value ([8]; 0.001 µM): 1.06 GR | GR value ([8]; 0.003162 µM): 1.38 GR | GR value ([8]; 0.01 µM): 1.24 GR | GR value ([8]; 0.03162 µM): 1.18 GR | GR value ([8]; 0.1 µM): 1.2 GR | GR value ([8]; 0.3162 µM): 1.06 GR | GR value ([8]; 1 µM): 0.852 GR | GR value ([8]; 3.162 µM): -0.0922 GR | GR value ([8]; 10 µM): -0.82 GR | GR value (YKL-5-124; 0.001 µM): -0.0339 GR | GR value (YKL-5-124; 0.003162 µM): -0.217 GR | GR value (YKL-5-124; 0.01 µM): -0.27 GR | GR value (YKL-5-124; 0.03162 µM): -0.419 GR | GR value (YKL-5-124; 0.1 µM): -0.484 GR | GR value (YKL-5-124; 0.3162 µM): -0.506 GR | GR value (YKL-5-124; 1 µM): -0.608 GR | GR value (YKL-5-124; 3.162 µM): -0.727 GR | GR value (YKL-5-124; 10 µM): -0.871 GR | GR value (Neratinib/HKI272 [9]; 0.0003162 µM): 1.04 GR | GR value (Neratinib/HKI272 [9]; 0.001 µM): 0.943 GR | GR value (Neratinib/HKI272 [9]; 0.003162 µM): 1.02 GR | GR value (Neratinib/HKI272 [9]; 0.01 µM): 0.986 GR | GR value (Neratinib/HKI272 [9]; 0.03162 µM): 0.79 GR | GR value (Neratinib/HKI272 [9]; 0.1 µM): 0.621 GR | GR value (Neratinib/HKI272 [9]; 0.3162 µM): 0.377 GR | GR value (Neratinib/HKI272 [9]; 1 µM): 0.128 GR | GR value (Neratinib/HKI272 [9]; 3.162 µM): 0.0733 GR | GR value (BSJ-03-123 [10]; 0.001 µM): 1.1 GR | GR value (BSJ-03-123 [10]; 0.003162 µM): 0.898 GR | GR value (BSJ-03-123 [10]; 0.01 µM): 1 GR | GR value (BSJ-03-123 [10]; 0.03162 µM): 0.996 GR | GR value (BSJ-03-123 [10]; 0.1 µM): 0.911 GR | GR value (BSJ-03-123 [10]; 0.3162 µM): 0.848 GR | GR value (BSJ-03-123 [10]; 1 µM): 0.865 GR | GR value (BSJ-03-123 [10]; 3.162 µM): 0.754 GR | GR value (BSJ-03-123 [10]; 10 µM): -0.525 GR

MDAMB415
GR50, 72 h (LEE011/Ribociclib [1]): 0.00974 µM | GR50, 72 h (Taselisib/GDC0032): 0.293 µM | GR50, 72 h (Volasertib/BI6727): 0.0112 µM | GR50, 72 h [2]: 0.00897 µM | GR50, 72 h (Tivantinib/ARQ197): 1.5 µM | GR50, 72 h (Pictilisib/GDC0941): 0.597 µM | GR50, 72 h (ABT-737): 7.69 µM | GR50, 72 h (Neratinib/HKI272 [3]): 1.65 µM | GR50, 72 h (Ceritinib/LDK378): 3.76 µM | GR50, 72 h (BSJ-03-123 [4]): 1.36 µM | GR50, 72 h (INK128/MLN0128): 0.0102 µM | GR50, 72 h (THZ531): 0.0474 µM | GR50, 72 h (Paclitaxel): 0.000687 µM | GR50, 72 h [5]: 0.0239 µM | GR value (LEE011/Ribociclib [6]; 0.001 µM): 0.708 GR | GR value (LEE011/Ribociclib [6]; 0.003162 µM): 0.659 GR | GR value (LEE011/Ribociclib [6]; 0.01 µM): 0.504 GR | GR value (LEE011/Ribociclib [6]; 0.03162 µM): 0.395 GR | GR value (LEE011/Ribociclib [6]; 0.1 µM): 0.287 GR | GR value (LEE011/Ribociclib [6]; 0.3162 µM): 0.248 GR | GR value (LEE011/Ribociclib [6]; 1 µM): 0.264 GR | GR value (LEE011/Ribociclib [6]; 3.162 µM): 0.278 GR | GR value (LEE011/Ribociclib [6]; 10 µM): 0.222 GR | GR value ([7]; 0.0001 µM): 1.06 GR | GR value ([7]; 0.0003162 µM): 1.04 GR | GR value ([7]; 0.001 µM): 1.18 GR | GR value ([7]; 0.003162 µM): 1.2 GR | GR value ([7]; 0.01 µM): 0.935 GR | GR value ([7]; 0.03162 µM): -0.112 GR | GR value ([7]; 0.1 µM): -0.482 GR | GR value ([7]; 0.3162 µM): -0.48 GR | GR value ([7]; 1 µM): -0.484 GR | GR value ([8]; 0.001 µM): 0.878 GR | GR value ([8]; 0.003162 µM): 0.833 GR | GR value ([8]; 0.01 µM): 0.478 GR | GR value ([8]; 0.03162 µM): 0.21 GR | GR value ([8]; 0.1 µM): 0.136 GR | GR value ([8]; 0.3162 µM): 0.113 GR | GR value ([8]; 1 µM): 0.086 GR | GR value ([8]; 3.162 µM): 0.0858 GR | GR value ([8]; 10 µM): 0.0092 GR | GR value (YKL-5-124; 0.001 µM): 0.597 GR | GR value (YKL-5-124; 0.003162 µM): 0.543 GR | GR value (YKL-5-124; 0.01 µM): 0.372 GR | GR value (YKL-5-124; 0.03162 µM): 0.396 GR | GR value (YKL-5-124; 0.1 µM): 0.338 GR | GR value (YKL-5-124; 0.3162 µM): 0.279 GR | GR value (YKL-5-124; 1 µM): 0.323 GR | GR value (YKL-5-124; 3.162 µM): 0.24 GR | GR value (YKL-5-124; 10 µM): -0.0052 GR | GR value (Neratinib/HKI272 [9]; 0.0003162 µM): 1.06 GR | GR value (Neratinib/HKI272 [9]; 0.001 µM): 1.08 GR | GR value (Neratinib/HKI272 [9]; 0.003162 µM): 1.13 GR | GR value (Neratinib/HKI272 [9]; 0.01 µM): 1.1 GR | GR value (Neratinib/HKI272 [9]; 0.03162 µM): 1.06 GR | GR value (Neratinib/HKI272 [9]; 0.1 µM): 0.989 GR | GR value (Neratinib/HKI272 [9]; 0.3162 µM): 0.889 GR | GR value (Neratinib/HKI272 [9]; 1 µM): 0.737 GR | GR value (Neratinib/HKI272 [9]; 3.162 µM): 0.0984 GR | GR value (BSJ-03-123 [10]; 0.001 µM): 0.922 GR | GR value (BSJ-03-123 [10]; 0.003162 µM): 0.789 GR | GR value (BSJ-03-123 [10]; 0.01 µM): 0.714 GR | GR value (BSJ-03-123 [10]; 0.03162 µM): 0.825 GR | GR value (BSJ-03-123 [10]; 0.1 µM): 0.744 GR | GR value (BSJ-03-123 [10]; 0.3162 µM): 0.674 GR | GR value (BSJ-03-123 [10]; 1 µM): 0.61 GR | GR value (BSJ-03-123 [10]; 3.162 µM): 0.545 GR | GR value (BSJ-03-123 [10]; 10 µM): 0.181 GR
